Patent US20120004157A1, “HYDROXYPROLINE COMPOSITIONS AND USES THEREOF” (Bergen Teknologioverforing AS, priority 2007, published 2012)
“Also recorded” adds a separate entry of the source.

Tests used:
psoriasis = settings: Phase III psoriasis study, topical formulation; not statistically significant; cited from earlier work
[1] = Blood plasma levels of hydroxyproline in trout fed 90 days; type: in vivo; settings: for blood plasma levels of Hydroxyproline: trout fed for 90 days, FIG. 2
Experimental: (§1) Trout were fed fish hydrolysate and fractions thereof to identify bioactive compounds (see Table 2).
The y axis is plasma levels in micromoles per 100 ml and the x-axis is the dietary level of component in g per kg diet.

[2] = tested on: Atlantic salmon (Salmo salar); experiment: 88 days growth experiment, growth and feed performance; type: in vivo; settings: 88 days feeding
From the text: The diets used were composed such that they are equal in protein, lipid and energy, and designed to vary only in level of Hydroxyproline. The small amounts of Hydroxyproline added (L-4-Hydroksyproline, >99.0% pure, Fluka BioChemika. Sigma-Aldrich Chemie GmbH) were exchanged with fish meal, and the diets were otherwise adjusted with the content of raw wheat to secure equal chemical composition. Five different levels of Hydroxyproline were used in a regression design with two replicates for each level, except the diet without Hydroxyproline addition that was run in triplicate tanks. The levels used of hydroxyproline were 0, 0.7 gkg^−1, 1.4 gkg^−1, 2.8 gkg^−1 and 5.6 gkg^−1. As a negative control, Proline (L-Proline, (Hydroxy-L-Proline Free) Sigma grade, Sigma Chemical Company) was added to a level of 2.8 gkg^−1.
Atlantic salmon (Salmo salar) was obtained from Salmobreed May 2006. The fish was prevaccinated with Trippel Forte and was acclimated for 56 days before the trial started. The fish was given EWOS Opal Boost 50 3A, 3 mm pellets during this period. The fish was randomly distributed among 14 fiberglass tanks (1.5×1.5×1 m^3) with 80 fish per tank. Diet 1 and Diet 6 were run in triplicate tanks. Diet 2, Diet 3, Diet 4 and Diet 5 was run in duplicate tanks. Data are given also for a fish meal diet with no plant protein included. This diet was run simultaneously with fish of the same size, origin and treatment. This diet (Diet 7) was run in 2 m×2 m×1 m tanks in triplicate in a parallel experiment. The tanks were supplied with 75 I min^−1 of seawater taken from a depth of 50 m with average salinity of 3.2-3.3%. Water temperature was kept constant at 10.4±0.4° C. during the acclimatization and the experimental period, using a heat exchanger to adjust the sea water temperature. Throughout the experimental period of 88 days, the fish were exposed to 24 h artificial light. Great care was taken to reduce disturbance from the environment. Automatic feeders were used to add feed from 05.00 to 08.00 hrs and from 14.00 to 03.00 hrs. The level of feeding was regulated in such a way that offered feed was 110% of expected consumption based on daily monitoring of wasted feed. Uneaten feed was continuously removed by automatic collection and separated from feces using an Excess Fishfeed Collector (Holland Teknologi, Norway). Feed intake was measured daily as the difference between total feed given and total uneaten feed collected. Feed intake for the total experimental period was measured as the sum of the daily feed intakes, divided by feeding days and average fish weight during the experimental period; (start weight+final weight)/2. Feeding was sustained until the fish was sampled for analyses.
The six experimental diets were randomly assigned to the 14 tanks, with 3 replicate tanks for Diet 1 and Diet 6 and to duplicate tanks for the other experimental diets. Initial fish weights and lengths were recorded. Twenty fish representing the weight ranges were sampled, killed by a blow on the head, frozen and kept at −80° C. pending analyses of fish at start. Final weights were determined for each fish in all tanks. At the end of the feeding period, the fish were anaesthetized with Eugonol (iso-eugunol was diluted 1:1 with ethanol and the diluted solution was added 15 ml per m^3 water in the tanks). After about 15 min, 10 fish from each tank were sampled, killed by a blow in the head, gutted and weight of slaughtered fish, liver and viscera were noted. Five other fish from each tank were pooled and frozen for pending analyses.
The 88 days growth experiment was run successfully with a thermal growth coefficient (TGC) of 2.5 for the fish meal control diet. Some loss of fish occurred during the experimental period and some fish seemed not to develop normally. […]

[3] = Retention of dietary hydroxyproline in fish; type: in vivo; settings: FIG. 1
Experimental: as §1
The experiments where fish were fed a diet including varying levels of hydroxyproline were performed as described above.
The retention of hydroxyproline is statistically correlated to the dietary level. Low dietary levels (0.8 g per kg diet) give retention of close to 100% while higher dietary levels (>4.5 g per kg diet) gives retention of 20-30%.

[4] = tested on: Atlantic salmon (Salmo salar); experiment: Subjective scoring of wounds on skin, damage on dorsal fin and loss of shells; type: in vivo; settings: scale from 0 (no damage) to 5 (severe damages), 88 days feeding, Diets 2-5 = 0.7, 1.4, 2.8, 5.6 gkg−1 added hydroxyproline, mean ± SD
Experimental: Wounds on skin, damages on dorsal fin and loss of shells were evaluated in the 10 salmons from each tank. The measure was subjectively based on a scale from 0 (no damage) to 5 (severe damages). The data and statistics are included in the table below (based on 110 measures) and shown in the figure based on average values for each tank). The statistics given are based on linear regression. […] (Table 3 and FIGS. 5, 6 and 7)

[5] = added hydroxyproline gkg−1: Diet 2 0.7, Diet 3 1.4, Diet 4 2.8, Diet 5 5.6, mean ± SD
[6] = at 2.9 gkg−1 added Hydroxyproline

| Structure (SMILES) | greater improvement in mean lesion scores in the treated group compared to placebos (psoriasis) | dietary level above which the negative effects are eliminated ([1]; from retention, plasma and tissue data) | blood plasma levels of Hydroxyproline ([1]; dietary level 0.8 g per kg) | blood plasma levels of Hydroxyproline ([1]; dietary levels >4 g per kg) | nutritional requirement indicated by the growth curve [2] | Body weight at end, g [2, 5] | Weight gain, g/fish [2, 5] | increase of weight gain compared with no Hydroxyproline added (Diet 1) [2, 6] | weight gain at the maximum of the regression equation [2, 6] | added Hydroxyproline at maximum of the weight gain regression equation ([2]; polynomial regression, n=11) | SGR ([2]; specific growth rate, Diets 2-5 = 0.7, 1.4, 2.8, 5.6 gkg−1 added hydroxyproline, mean ± SD) | TGC ([2]; thermal growth coefficient, Diets 2-5 = 0.7, 1.4, 2.8, 5.6 gkg−1 added hydroxyproline, mean ± SD) | retention of Hydroxyproline in the fish ([3]; higher dietary levels (>4.5 g per kg diet)) | retention of Hydroxyproline in the fish ([3]; low dietary levels (0.8 g per kg diet)) | Damage on dorsal fin [4] | Loss of shells [4] | Wounds on skin [4] |
| --- | --- | --- | --- | --- | --- | --- | --- | --- | --- | --- | --- | --- | --- | --- | --- | --- | --- |
| Nc1nc2c(Cc3cccnc3)c[nH]c2c(=O)[nH]1 [BCX-34] | 14% |  |  |  |  |  |  |  |  |  |  |  |  |  |  |  |  |
| O=C(O)[C@@H]1C[C@@H](O)CN1 [Hydroxyproline, L-4-Hydroksyproline] |  | 3-4 g per kg diet | much lower than previously known (normal values); also recorded: much lower than earlier published (normal values) | very high plasma levels | 2.5-3 g per kg diet | growth promoting effect | growth promoting effect | 14.0% | 155 g | 2.9 gkg−1 | growth promoting effect | growth promoting effect | 20-30% | ~100% | lesser degree of damage to the dorsal fin | lower levels of fish scale loss | lesser degree of wounding |
